One test relates to MDA-MB-231 cancer cells. Nature of the test: MDA-MB-231 tumour growth in the mammary fat pad of SCID mice. Type of test: in vivo. The conditions noted are these: 10 mg/kg, peritumoral injection, once every three days, monotherapy, versus vehicle (PBS); P<0.01. The protocol: (A) MDA-MB-231 cells have been injected into the mammary fat pad of SCID mice. When the tumors reached a mean volume of about 90 mm^3, mice were treated with dTAT 1-23 C20A peptide at 10 mg/kg, peritumoral injection, once every three days, or vehicle alone (PBS) with the same injection periodicity.
SCID Mice have been used as tumor model for testing the effects of administration of the peptides according to the invention
MDA-MB-231 cancer cells have been injected into the mammary fat pad of SCID mice.

For test [1], the target named is T1, Nrh/IP3R1 complex (Flag-Nrh / HA-hBD IP3R1) (Homo sapiens, UniProt Q9HD36).
T1 construct: expressed in transfected cells; host or cells: HeLa
T1 sequence (Q9HD36 11-204): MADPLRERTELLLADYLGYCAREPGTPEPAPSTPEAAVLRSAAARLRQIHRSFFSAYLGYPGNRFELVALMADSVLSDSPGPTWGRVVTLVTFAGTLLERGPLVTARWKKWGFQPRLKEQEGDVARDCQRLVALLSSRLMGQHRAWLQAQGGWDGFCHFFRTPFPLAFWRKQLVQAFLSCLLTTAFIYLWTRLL
Nature of the test: Co-immunoprecipitation of Flag-Nrh and HA-hBD IP3R1 in HeLa cells pre-incubated with dTAT peptides. Type of test: cell-based. The conditions noted are these: 10 μM peptide, pre-incubated 1 h at 37° C., no external agent. The protocol:
(B) The interaction between Flag-Nrh and HA-hBD IP3R1 was assessed by co-immunoprecipitation in HeLa cells transfected with a plasmid coding for Flag-Nrh or HA-hBD IP3R1, pre-incubated with 10 μM control peptide (dTAT 1-23 C20A Y16F) or 10 μM peptide (dTAT 1-23 C20A). In this experiment, dTAT-Nrh 1-23 C20A but not dTAT 1-23 C20A Y16F disrupts the Nrh/IP3R1 complex.
The interaction between Flag-Nrh (Bcl-2 L10) and HA-hBD IP3R1 was assessed by co-immunoprecipitation in HeLa cells transfected with a plasmid coding for Flag-Nrh or HA-hBD IP3R1, pre-incubated for 1 h at 37° C. in Ca^2+-free Balanced Salt Solution (121 mM NaCl, 5.4 mM KCl, 0.8 mM MgCl2, 6 mM NaHCO3, 5.5 mM D-glucose, 25 mM HEPES, pH 7.3) with vehicle (peptide solvant [H2O-TFA 0.1%]), and: • 10 μM of control peptide (dTAT 1-23 Y16F C20A) or • 10 μM of wild-type peptide (dTAT 1-23 C20A).
Cells were washed twice and incubated for another 1 h at 37° C. before harvest.

With “CKRKKRRQRRRGGSGGADPLRERTELLLADYLGYAARE [dTAT 1-23 C20A]”, the “effect on tumoral growth (tumor volume)” value in the test with MDA-MB-231 cancer cells is “significant effect”. The “disruption of the Nrh/IP3R1 complex (co-immunoprecipitation)” value in test [1] is reported as “disrupt the Nrh/IP3R1 complex”.
